From ChEMBL document CHEMBL1938343, “Lead optimisation of selective non-zinc binding inhibitors of MMP13. Part 2” (Bioorg Med Chem Lett, 2012)

Legend:
[1] = target: 72 kDa type IV collagenase (Homo sapiens, UniProt P08253); assay: Inhibition of MMP2 using Mca-Pro-cyclohexyl-Ala-Gly-Nva-His-Ala- Dap(Dnp)-NH2 as substrate by fluorometric analysis; conditions: read-out: IC50
[2] = Renal elimination in rat at 2 mg/kg, iv; assay type: ADME, organism-based; design: dose 2 mg/kg, route intravenous; conditions: urine, read-out: Ae
[3] = Oral bioavailability in dog; assay type: ADME, organism-based, Canis lupus familiaris; conditions: in vivo
[4] = Intrinsic clearance in Sprague-Dawley rat hepatocytes assessed per 10^6 cells; assay type: ADME, cell-based, Hepatocyte; conditions: Sprague-Dawley, read-out: CLH
[5] = target: T1, A disintegrin and metalloproteinase with thrombospondin motifs 4 (Homo sapiens) (UniProt O75173); assay: Inhibition of ADAM-TS4 using dimethoxyfluorescein-Ser-Pro-Leu-Ala-Gln-Ala- Val-Arg-ser-Ser-Arg-Cys-fluorescein as substrate
T1 sequence (whole entry): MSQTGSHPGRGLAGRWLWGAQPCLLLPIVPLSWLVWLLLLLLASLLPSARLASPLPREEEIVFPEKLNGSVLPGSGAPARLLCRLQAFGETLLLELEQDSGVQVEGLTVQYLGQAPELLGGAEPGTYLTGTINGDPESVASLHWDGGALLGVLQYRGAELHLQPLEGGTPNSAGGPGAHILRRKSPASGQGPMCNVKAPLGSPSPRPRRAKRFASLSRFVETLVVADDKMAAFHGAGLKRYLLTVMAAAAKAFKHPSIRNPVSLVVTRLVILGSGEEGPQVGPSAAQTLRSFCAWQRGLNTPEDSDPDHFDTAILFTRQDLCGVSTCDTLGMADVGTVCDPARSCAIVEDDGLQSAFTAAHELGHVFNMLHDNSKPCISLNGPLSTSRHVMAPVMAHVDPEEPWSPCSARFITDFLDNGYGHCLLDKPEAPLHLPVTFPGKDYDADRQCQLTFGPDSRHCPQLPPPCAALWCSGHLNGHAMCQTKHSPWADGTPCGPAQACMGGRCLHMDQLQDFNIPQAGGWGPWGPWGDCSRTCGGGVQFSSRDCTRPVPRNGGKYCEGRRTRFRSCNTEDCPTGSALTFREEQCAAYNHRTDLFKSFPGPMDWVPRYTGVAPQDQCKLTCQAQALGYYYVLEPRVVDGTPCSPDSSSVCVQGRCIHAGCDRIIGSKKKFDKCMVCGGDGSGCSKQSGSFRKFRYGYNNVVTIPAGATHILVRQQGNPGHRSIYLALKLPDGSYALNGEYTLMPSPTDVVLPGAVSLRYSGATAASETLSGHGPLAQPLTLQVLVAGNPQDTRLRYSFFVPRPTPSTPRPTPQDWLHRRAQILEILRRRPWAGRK

[6] = Volume of distribution at steady state in dog at 1 mg/kg, iv and 1 mg/kg, po; assay type: ADME, organism-based, Canis lupus familiaris; conditions: in vivo, read-out: Vdss
[7] = Intrinsic clearance in human hepatocytes assessed per 10^6 cells; assay type: ADME, cell-based, Hepatocyte; conditions: read-out: CLH
[8] = Fraction unbound in dog; assay type: ADME, organism-based, Canis lupus familiaris; conditions: in vivo
[9] = Clearance in rat at 2 mg/kg, iv; assay type: ADME, organism-based; design: dose 2 mg/kg, route intravenous; conditions: in vivo
[10] = Apparent permeability across apical to basolateral side in human Caco2 cells at 10 uM; assay type: ADME, cell-based; conditions: Caco-2
Collagenase 3 = Collagenase 3 (Homo sapiens, UniProt P45452); assay: Inhibition of recombinant human MMP13 using Mca-Pro-cyclohexyl-Ala-Gly-Nva-His-Ala- Dap(Dnp)-NH2 as substrate by fluorometric analysis; conditions: read-out: IC50
[11] = Thermodynamic solubility of the compound; conditions: Therm_solubility
[12] = target: T2, A disintegrin and metalloproteinase with thrombospondin motifs 5 (Homo sapiens) (UniProt Q9UNA0); assay: Inhibition of ADAM-TS5 using dimethoxyfluorescein-Ser-Pro-Leu-Ala-Gln-Ala- Val-Arg-ser-Ser-Arg-Cys-fluorescein as substrate
T2 sequence (whole entry): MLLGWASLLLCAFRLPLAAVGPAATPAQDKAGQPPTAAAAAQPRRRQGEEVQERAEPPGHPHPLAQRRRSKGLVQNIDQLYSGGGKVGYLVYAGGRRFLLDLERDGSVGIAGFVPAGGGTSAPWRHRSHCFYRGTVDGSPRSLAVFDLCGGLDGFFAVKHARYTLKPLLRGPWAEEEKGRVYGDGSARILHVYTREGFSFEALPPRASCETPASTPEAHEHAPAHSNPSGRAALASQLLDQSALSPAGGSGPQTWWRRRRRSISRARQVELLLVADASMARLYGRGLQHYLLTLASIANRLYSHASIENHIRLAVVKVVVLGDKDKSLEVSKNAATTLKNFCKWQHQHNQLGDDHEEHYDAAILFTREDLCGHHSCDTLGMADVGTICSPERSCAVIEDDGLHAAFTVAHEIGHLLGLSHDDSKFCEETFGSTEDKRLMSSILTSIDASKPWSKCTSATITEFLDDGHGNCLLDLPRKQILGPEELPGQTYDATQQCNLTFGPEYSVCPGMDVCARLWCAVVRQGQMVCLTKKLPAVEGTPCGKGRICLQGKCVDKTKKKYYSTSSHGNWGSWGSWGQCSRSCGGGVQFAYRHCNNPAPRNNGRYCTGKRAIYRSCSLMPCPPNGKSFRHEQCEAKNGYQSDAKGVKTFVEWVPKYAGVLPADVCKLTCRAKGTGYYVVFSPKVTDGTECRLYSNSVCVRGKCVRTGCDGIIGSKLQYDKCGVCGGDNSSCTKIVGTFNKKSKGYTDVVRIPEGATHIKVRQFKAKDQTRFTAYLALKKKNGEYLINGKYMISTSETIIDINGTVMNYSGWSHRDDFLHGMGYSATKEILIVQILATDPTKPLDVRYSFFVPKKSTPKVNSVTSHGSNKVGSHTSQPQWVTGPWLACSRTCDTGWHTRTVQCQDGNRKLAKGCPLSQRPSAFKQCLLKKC

[13] = target: Matrix metalloproteinase-9 (Homo sapiens, UniProt P14780); assay: Inhibition of MMP9 using Mca-Pro-cyclohexyl-Ala-Gly-Nva-His-Ala- Dap(Dnp)-NH2 as substrate by fluorometric analysis
[14] = Volume of distribution at steady state in rat at 2 mg/kg, iv; assay type: ADME, organism-based; design: dose 2 mg/kg, route intravenous; conditions: in vivo, read-out: Vdss

Sequence of Matrix metalloproteinase-9 (P14780 whole entry): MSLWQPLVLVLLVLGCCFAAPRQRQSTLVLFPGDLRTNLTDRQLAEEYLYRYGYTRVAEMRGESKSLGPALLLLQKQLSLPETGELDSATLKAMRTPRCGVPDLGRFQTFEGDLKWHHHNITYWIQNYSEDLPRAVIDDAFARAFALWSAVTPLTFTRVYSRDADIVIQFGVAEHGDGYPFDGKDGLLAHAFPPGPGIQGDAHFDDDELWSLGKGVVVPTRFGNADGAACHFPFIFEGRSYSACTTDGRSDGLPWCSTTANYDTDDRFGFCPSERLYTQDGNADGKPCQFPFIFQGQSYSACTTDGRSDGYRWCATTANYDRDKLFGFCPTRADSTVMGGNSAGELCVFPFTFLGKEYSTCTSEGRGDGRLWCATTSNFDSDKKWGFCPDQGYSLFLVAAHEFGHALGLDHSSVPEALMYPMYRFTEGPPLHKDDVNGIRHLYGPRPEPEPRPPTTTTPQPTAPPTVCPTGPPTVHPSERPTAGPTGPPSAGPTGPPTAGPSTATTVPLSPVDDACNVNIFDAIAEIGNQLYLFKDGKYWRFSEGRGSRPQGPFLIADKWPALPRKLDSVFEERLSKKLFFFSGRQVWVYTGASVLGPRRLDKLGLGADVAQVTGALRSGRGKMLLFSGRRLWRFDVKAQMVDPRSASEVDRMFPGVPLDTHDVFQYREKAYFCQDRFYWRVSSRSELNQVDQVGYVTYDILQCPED
Sequence of 72 kDa type IV collagenase (P08253 whole entry): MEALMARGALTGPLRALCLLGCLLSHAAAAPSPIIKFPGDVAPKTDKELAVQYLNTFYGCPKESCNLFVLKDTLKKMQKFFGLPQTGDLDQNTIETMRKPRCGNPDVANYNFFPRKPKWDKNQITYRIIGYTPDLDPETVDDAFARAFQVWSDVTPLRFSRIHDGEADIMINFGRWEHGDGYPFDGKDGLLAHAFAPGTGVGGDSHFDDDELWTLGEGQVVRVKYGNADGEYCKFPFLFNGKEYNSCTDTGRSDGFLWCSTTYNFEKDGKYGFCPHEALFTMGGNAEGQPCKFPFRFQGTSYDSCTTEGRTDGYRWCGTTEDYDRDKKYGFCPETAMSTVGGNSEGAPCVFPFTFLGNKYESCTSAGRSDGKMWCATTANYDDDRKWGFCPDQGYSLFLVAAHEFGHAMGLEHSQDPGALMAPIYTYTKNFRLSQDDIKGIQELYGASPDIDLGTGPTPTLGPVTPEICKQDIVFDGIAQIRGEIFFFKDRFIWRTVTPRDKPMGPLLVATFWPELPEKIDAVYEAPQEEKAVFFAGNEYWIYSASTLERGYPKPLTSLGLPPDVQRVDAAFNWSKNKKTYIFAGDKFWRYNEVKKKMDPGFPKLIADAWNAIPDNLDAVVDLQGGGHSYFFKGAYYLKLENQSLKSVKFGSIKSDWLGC

Q: Which results are given for CN1CCC(NC(=O)c2ccc(Oc3ccc(C#C[C@]4(O)CN5CCC4CC5)cc3)cc2)CC1?
A: IC50 [1]: 7.3 µM; dose excreted [2]: < 1%; bioavailability [3]: 47%; hepatocyte CLint [4]: < 2 µL/min/1e6 cells; INH [5]: > 10 µM; Vd [6]: 6.6 L/kg; hepatocyte CLint [7]: < 2 µL/min/1e6 cells; fraction unbound [8]: 0.47; clearance [9]: 16 mL/min/kg; Papp A→B at 10 µM [10]: 0.3 ×10⁻⁶ cm/s; IC50 (Collagenase 3): 0.074 µM; solubility thermodynamic [11]: > 2000 µM; INH [12]: > 10 µM; pIC50 [13]: < 5; IC50 ([13]; read-out: IC50): > 10 µM; Vd [14]: 12.6 L/kg
